What all share (assay): cells
What all share (design): JFCR39 human cancer cell line panel, antiproliferative dose response (optical density), GI50

The test system of one assay is OVCAR-5. The settings on record: Homo sapiens, OVCAR-5. As for the experimental part: (§1) Initially, we evaluated new DDP analogues for their antiproliferative activities across the panel of 39 human cancer cell lines, JFCR39[50],[51]. […] Purified DDPs was dissolved in DMSO (Specially Prepared Reagent, Nuclease and Protease tested, NACALAI, 09659-14) to prepare 5 mM solutions. The Each DDP solution (5 mM) was used for antiproliferative effects on cancer cell lines (Supplementary Notes 23, 24, 25, 26), biological activity against Drosophila (Supplementary Note 27), anti-HIV assay (Supplementary Note 28) and screening of amyloid Ab42 aggregation inhibitors (Supplementary Notes 29).

In a further assay the test system is DMS273. The settings on record: Homo sapiens, DMS-273. As for the experimental part:
as §1

A further assay relates to U251. Conditions: Homo sapiens, U-251. The method, then:
as §1

The test system of the next assay is OVCAR-3. The settings on record: Homo sapiens, OVCAR-3. The method, then: as §1
Another assay has as its system DMS114. Conditions: Homo sapiens, DMS-114. As for the experimental part:
as §1

The subject of the next assay is OVCAR-4. Conditions: Homo sapiens, OVCAR-4. As for the experimental part:
as §1

The next assay concerns NCI-H23. Conditions: Homo sapiens, NCI-H23. The method, then:
as §1

The next assay has as its system SF-539. Conditions: Homo sapiens, SF-539. As for the experimental part:
as §1

Another assay deals with St-4. The settings on record: Homo sapiens, St-4. The method, then: as §1
For the next assay, the system named is HCT-116. Conditions: Homo sapiens, HCT-116. The method, then:
as §1

In another assay the test system is NCI-H522. The settings on record: Homo sapiens, NCI-H522. As for the experimental part:
as §1

Another assay relates to MDA-MB-231. The settings on record: Homo sapiens, MDA-MB-231. As for the experimental part: as §1
Another assay deals with PC-3. The settings on record: Homo sapiens, PC-3. As for the experimental part: as §1
Another assay deals with HBC-4. The settings on record: HBC4. The method, then:
as §1

Another assay has as its system HT-29. The settings on record: Homo sapiens, HT-29. The method, then: as §1
The test system of a further assay is SNB-78. Conditions: Homo sapiens, SNB-78. As for the experimental part:
as §1

In another assay the test system is HCC2998. The settings on record: Homo sapiens, HCC 2998. The method, then: as §1
Another assay relates to SF-268. The settings on record: Homo sapiens, SF-268. The method, then:
as §1

In the next assay the test system is BSY-1. Conditions: BSY-1. As for the experimental part:
as §1

A further assay has as its system A549. The settings on record: Homo sapiens, A549. As for the experimental part:
as §1

The test system of a further assay is SF-295. The settings on record: Homo sapiens, SF-295. As for the experimental part: as §1
The test system of the next assay is MCF-7. The settings on record: Homo sapiens, MCF7. The method, then:
as §1

The next assay has as its system DU-145. Conditions: Homo sapiens, DU-145. The method, then: as §1

Usually GI50 stands for the concentration at which growth is held to half of that of the control. A higher GI50 goes with lower sensitivity of the cells. Take `C=C1CCC2C3(C)CC(C=C(C)C)OC3CCC2(C)C1Cc1c(OC)oc(C)c(C)c1=O` (stereo not shown) [Compound 23]: the GI50 was found to be 15.4 µM in the assay on OVCAR-5; 0.265 µM in the assay on DMS273; 13.2 µM with U251; 1.47 µM with OVCAR-3; 0.0552 µM in the assay on DMS114; 7.04 µM in the assay on OVCAR-4. Moreover, the concentration for 50% growth inhibition (GI50) turned out to be 0.228 µM with NCI-H23; 5.57 µM in the assay with SF-539; 12.4 µM in the assay with St-4; 0.995 µM with HCT-116; 0.721 µM with NCI-H522; 11.9 µM in the assay on MDA-MB-231. Moreover, the concentration for 50% growth inhibition (GI50) in the assay with PC-3 came out at 10.9 µM; with HBC-4, 13.2 µM; in the assay with HT-29 it was 10.3 µM; in the assay on SNB-78, 12.3 µM; in the assay with HCC2998, 12 µM; with SF-268 it was 8.62 µM. Moreover, the GI50 came out at 10.3 µM in the assay on BSY-1; 10.4 µM in the assay on A549; 1.12 µM with SF-295; 1.01 µM in the assay with MCF-7; 12.3 µM in the assay on DU-145.

Turning to `C=C1CC[C@H]2[C@]3(C)C[C@H](C=C(C)C)O[C@H]3CC[C@]2(C)[C@@H]1Cc1c(OC)oc(C)c(C)c1=O` [Compound 24], the GI50 came out at 14.5 µM in the assay with OVCAR-5; 0.484 µM in the assay with DMS273; 13.5 µM with U251; 2.68 µM in the assay with OVCAR-3; 0.189 µM with DMS114; 6.49 µM in the assay on OVCAR-4. Also, the GI50 is 0.668 µM in the assay on NCI-H23; 7.26 µM with SF-539; 12.2 µM in the assay on St-4; 1.3 µM in the assay on HCT-116; 0.754 µM in the assay on NCI-H522; 11.6 µM in the assay with MDA-MB-231. Besides, the GI50 in the assay on PC-3 was 11.8 µM; in the assay on HBC-4 it was 13.4 µM; in the assay with HT-29, 10.1 µM; in the assay on SNB-78, 12.9 µM; in the assay with HCC2998, 12.7 µM; in the assay on SF-268 it was 8.09 µM. In addition, the GI50 in the assay on BSY-1 stood at 9.59 µM; in the assay on A549, 6.88 µM; in the assay with SF-295, 2.21 µM; in the assay on MCF-7 it was 1.53 µM; in the assay on DU-145, 12.2 µM.

Values taken from article PMC7156458, “Synthetic biology based construction of biological activity-related library of fungal decalin-containing diterpenoid pyrones” (Nature Communications, 2020).
